Results as given in patent publication US8956824B2, “Methods for identifying allosteric modulators of ship polypeptides” (British Columbia Cancer Agency Branch, priority 2006, dated 2015).
“Also recorded” adds a separate entry of the source.

Target: T1, C2 domain deleted (ΔC2) SHIP1 enzyme (Mus musculus, UniProt Q9ES52, DEL725-860/G861A/K862A/M863A)
T1 construct: Full length, wild-type SHIP1 enzyme (wt) or SHIP1 enzyme in which the PH or C2 domains were deleted; made in house; 293T cells are stated only for the wild-type enzyme
T1 sequence (Q9ES52 with tags, fused parts or gaps DEL725-860/G861A/K862A/M863A limits assumed): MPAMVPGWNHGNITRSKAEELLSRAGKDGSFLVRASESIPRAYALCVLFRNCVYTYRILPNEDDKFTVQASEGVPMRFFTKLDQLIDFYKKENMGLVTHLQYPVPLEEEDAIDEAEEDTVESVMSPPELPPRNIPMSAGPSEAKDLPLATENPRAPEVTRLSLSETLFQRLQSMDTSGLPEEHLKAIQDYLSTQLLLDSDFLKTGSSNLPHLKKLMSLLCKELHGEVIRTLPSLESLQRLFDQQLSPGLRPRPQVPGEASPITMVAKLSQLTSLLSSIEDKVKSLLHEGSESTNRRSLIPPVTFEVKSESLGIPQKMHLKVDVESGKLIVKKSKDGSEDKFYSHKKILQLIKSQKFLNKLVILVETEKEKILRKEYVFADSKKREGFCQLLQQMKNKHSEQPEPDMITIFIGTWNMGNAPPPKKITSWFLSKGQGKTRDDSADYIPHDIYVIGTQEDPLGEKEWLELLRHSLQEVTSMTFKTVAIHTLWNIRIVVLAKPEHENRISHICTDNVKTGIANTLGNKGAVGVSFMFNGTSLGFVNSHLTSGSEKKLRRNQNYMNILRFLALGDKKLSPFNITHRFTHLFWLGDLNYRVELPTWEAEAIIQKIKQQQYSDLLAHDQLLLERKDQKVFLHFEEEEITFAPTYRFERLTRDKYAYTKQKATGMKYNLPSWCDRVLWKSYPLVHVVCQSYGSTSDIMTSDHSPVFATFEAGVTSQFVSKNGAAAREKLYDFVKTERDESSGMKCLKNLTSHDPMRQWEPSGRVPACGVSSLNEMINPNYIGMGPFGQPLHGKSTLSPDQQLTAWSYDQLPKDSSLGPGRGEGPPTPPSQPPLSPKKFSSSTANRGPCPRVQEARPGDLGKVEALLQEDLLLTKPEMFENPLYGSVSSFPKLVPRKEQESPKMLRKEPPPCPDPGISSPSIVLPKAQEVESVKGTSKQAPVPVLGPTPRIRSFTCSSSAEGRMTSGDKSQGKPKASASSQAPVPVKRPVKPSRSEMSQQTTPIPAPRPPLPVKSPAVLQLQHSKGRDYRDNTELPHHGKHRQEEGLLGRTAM
Assay: In vitro SHIP enzyme assay, C2 domain deleted SHIP1
Type: biochemical
Conditions: FIG. 4B, FIG. 10
Text: The mouse SHIP1 ΔC2 domain deletion mutant was generated by a standard PCR-based methodology using the primer pairs listed above, which in addition to being complementary to sequences immediately upstream and downstream of the C2 domain (amino acid residues 725 to 863), introduces a NotI restriction site. The PCR-products were digested with ClaI and NotI, and NotI and XbaI for the upstream and downstream fragments, respectively. Products were then resolved and imaged on a 1% agarose gel containing ethidium bromide and the appropriate sized fragments excised and purified using a column gel extraction kit (Qiagen, Mississauga, ON). In parallel, pME18S plasmid containing the cDNA for N-terminal His6-tagged SHIP1 was digested with ClaI and NotI, resolved and purified as before. Upstream fragment, downstream fragment and digested pME18S-SHIP plasmid were ligated to yield a plasmid coding for SHIP1 with the C2 domain deleted. An N-terminal His6 C2 domain was also generated by PCR using the primer pair indicated above and the resulting product inserted into the pET28C bacterial expression vector using EcoRI and NdeI restriction sites.
In vitro SHIP enzyme assay. The SHIP enzyme assay was performed in 96-well microtitre plates with 10 ng of enzyme/well in a total volume of 25 μL of 20 mM Tris HCl, pH 7.5 and 10 mM MgCl2. SHIP1 enzyme was incubated with test extracts (provided in DMSO) or vehicle for 15 mM at 23° C. before the addition of 100 μM inositol-1,3,4,5-tetrakisphosphate (Echelon Biosciences Inc, Salt Lake City, Utah). The reaction was allowed to proceed for 20 min at 37° C. and the amount of inorganic phosphate released assessed by the addition of Malachite Green reagent followed by an absorbance measurement at 650 nm (15). SHIP2 enzyme was purchased from Echelon Biosciences (Salt Lake City, Utah) and an equivalent amount of inositol phosphatase activity was used in the in vitro enzyme assay. Enzyme data are expressed as the mean of triplicates+/−SEM. Experiments were performed at least 3 times.

Row | Molecule | activation of SHIP1 with C2 domain deleted | activation of SHIP1 with C2 domain deleted (listed as PI(3,4)P2)
1 | Cc1cc(O)cc2c1[C@]1(C)CC[C@H]3C(C)(C)CCC[C@]3(C)[C@H]1C2 [AQX-MN100] | impaired the ability of SHIP1 to be activated; also recorded: abrogates the ability of SHIP1 to be activated | –
2 | phosphatidylinositol-3,4-bisphosphate [PI-3,4-P2, reference compound] | impaired the ability of SHIP1 to be activated | abrogates ability to be activated
